Tested on: all four serotypes of dengue
Assay: Yield assay against each serotype of dengue virus in vero cells
Format: cell-based
Details: FIG. 1
Protocol: Initially, the chemical structures of the hit compounds were examined for chemical tractability. […] Hits that passed this medicinal chemistry filter were evaluated for their potency. Compound potency was determined by evaluating inhibitory activity across a broad range of concentrations. Nonlinear regression was used to generate best-fit inhibition curves and to calculate the 50% effective concentration (EC50). The selectivity or specificity of a given compound is typically expressed as a ratio of its cytotoxicity to its biological effect. A cell proliferation assay is used to calculate a 50% cytotoxicity concentration (CC50); the ratio of this value to the EC50 is referred to as the therapeutic index (T.I.=CC50/EC50). Two types of assays have been used to determine cytotoxicity, both of which are standard methods for quantitating the reductase activity produced in metabolically active cells (30). One is a colorimetric method that measures the reduction of 3-(4,5-dimethylthiazol-2-yl)-2,5-diphenyl-tetrazolium bromide (MTT), and the other uses fluorimetry to measure the reduction of resazurin (Alamar Blue). […] Verification that these compounds act against each of the four serotypes of dengue was done with yield assays carried out at several drug concentrations, and the titer determined for each. […]

For `NC(=O)C1(N2CCCCC2)CCN(C(=O)CSc2nc3ccccc3o2)CC1` [Compound 3, 1′-[2-(Benzooxazol-2-ylsulfanyl)-acetyl]-[1,4′]bipiperidinyl-4′-carboxylic acid amide], the “activity against dengue serotypes” value was “activity against all four serotypes of dengue”.

Tested on: Dengue-2 (Strain New Guinea C)
Assay: Dengue-2 viral yield assay in Vero cells
Format: cell-based
Details: Dengue virus, Vero, 48 h, read-out: Activity (anti-dengue 2 viral activity, EC50)
Protocol: Compounds that were active in the primary screen were tested for activity in viral yield assays. […] Vero cells in 12-well plates were infected with dengue-2 virus at a multiplicity of infection (MOI) of 0.1, treated with compound (or DMSO as a control), incubated at 37° C., harvested 48 hours post infection and titered on Vero cells as described above. The EC50 was calculated through ExcelFit. Those compounds with activity below 1 μM are indicated with “A”, those with activity between 1 and 10 μM are indicated with “B”, and those with activity between 10 and 25 μM with “C”.

First: NC(=O)C1(N2CCCCC2)CCN(C(=O)CSc2nc3ccccc3o2)CC1 [Compound 3, 1′-[2-(Benzooxazol-2-ylsulfanyl)-acetyl]-[1,4′]bipiperidinyl-4′-carboxylic acid amide]
Second: NC(=O)C1(N2CCCCC2)CCN(C(=O)CSc2nc3ccccc3[nH]2)CC1 [Compound 70, 1′-[2-(1H-Benzoimidazol-2-ylsulfanyl)-acetyl]-[1,4′]bipiperidinyl-4′-carboxylic acid amide]
The EC50 of the first is lower: under 1 µM for the first, over 25 µM for the second.

`O=C(CSc1nnc(CSc2nc3ccccc3s2)o1)NC1CCCCC1` [Compound 53, 2-[5-(Benzothiazol-2-ylsulfanylmethyl)-[1,3,4]oxadiazol-2-ylsulfanyl]-N-cyclohexyl-acetamide] and `NC(=O)C1CCN(C(=O)CSc2nc3ccccc3s2)CC1` [Compound 66, 1-[2-(Benzothiazol-2-ylsulfanyl)-acetyl]-piperidine-4-carboxylic acid amide] cannot be ordered by EC50: over 25 µM for the first, over 25 µM for the second.

`CCC(=O)Nc1ccc2nc(SCC(=O)N3CCN(c4ccccc4)CC3)sc2c1` [Compound 54, N-{2-[2-oxo-2-(4-phenyl-piperazin-1-yl)-ethylsulfanyl]-benzothiazol-6-yl}-propionamide] and `CCCC(=O)Nc1ccc2nc(SCC(=O)N3CCN(c4ccccc4)CC3)sc2c1` [Compound 75, N-{2-[2-oxo-2-(4-phenyl-piperazin-1-yl)-ethylsulfanyl]-benzothiazol-6-yl}-butyramide] cannot be ordered by EC50: over 25 µM for the first, over 25 µM for the second.

`Nc1ccc2nc(SCC(=O)N3CCCC3)sc2c1` [Compound 59, 2-(6-Amino-benzothiazol-2-ylsulfanyl)-1-pyrrolidin-1-yl-ethanone] and `O=C(CSc1nc2cc(Cl)ccc2o1)N1CCOCC1` [Compound 74, 2-(5-Chloro-benzooxazol-2-ylsulfanyl)-1-morpholin-4-yl-ethanone] cannot be ordered by EC50: over 25 µM for the first, over 25 µM for the second.

`O=C1CC(N2CCN(c3nc4ccccc4s3)CC2)C(=O)N1c1ccc(F)cc1` (centres unmarked) [Compound 60, 3-(4-Benzothiazol-2-yl-piperazin-1-yl)-1-(4-fluoro-phenyl)-pyrrolidine-2,5-dione] and `O=C(CSc1nc2ccccc2o1)N1CCN(c2ccc(Cl)cc2)CC1` [Compound 80, 2-(Benzooxazol-2-ylsulfanyl)-1-[4-(4-chloro-phenyl)-piperazin-1-yl]-ethanone] cannot be ordered by EC50: over 25 µM for the first, over 25 µM for the second.

`NC(=O)C1CCN(C(=O)CSc2nc3ccccc3[nH]2)CC1` [Compound 68, 1-[2-(1H-Benzoimidazol-2-ylsulfanyl)-acetyl]-piperidine-4-carboxylic acid amide] and `O=C(CSc1nc2ccccc2o1)N1CCN(c2ccccc2)CC1` [Compound 76, 2-(Benzooxazol-2-ylsulfanyl)-1-(4-phenyl-piperazin-1-yl)-ethanone] cannot be ordered by EC50: over 25 µM for the first, over 25 µM for the second.

For `CCn1c(SCC(=O)N2CCC(C(N)=O)(N3CCCCC3)CC2)nnc1-c1ccccc1` [Compound 69, 1′-[2-(4-Ethyl-5-phenyl-4H-[1,2,4]triazol-3-ylsulfanyl)-acetyl]-[1,4′]bipiperidinyl-4′-carboxylic acid amide], the EC50 was over 25 µM.

Same assay, conditions: Dengue virus; Dengue-2 strain New Guinea C, Vero cells, MOI 0.1, harvested 48 hours post infection, viral yield; read-out: Activity (anti-dengue 2 viral activity, EC50)

Going from `O=C1CC(Sc2nc3ccccc3s2)C(=O)N1Cc1ccccc1` (centres unmarked) [Compound 4, 3-(Benzothiazol-2-ylsulfanyl)-1-benzyl-pyrrolidine-2,5-dione] to `O=C(CSc1nc2ccccc2s1)N1CCN(c2nc3ccccc3s2)CC1` [Compound 50, 1-(4-Benzothiazol-2-yl-piperazin-1-yl)-2-(benzothiazol-2-ylsulfanyl)-ethanone], the EC50 rises from under 1 µM to over 25 µM.

First: COc1ccccc1C(=O)C1CCCN(C(=O)CSc2nc3cc(C)ccc3[nH]2)C1 (centres unmarked) [Compound 12, 1-[3-(2-Methoxy-benzoyl)-piperidin-1-yl]-2-(5-methyl-1H-benzoimidazol-2-ylsulfanyl)-ethanone]
Second: O=C(CSc1nc2ccccc2[nH]1)N1CCc2ccccc2C1 [Compound 61, 2-(1H-Benzoimidazol-2-ylsulfanyl)-1-(3,4-dihydro-1H-isoquinolin-2-yl)-ethanone]
The EC50 of the first is lower: 1 to 10 µM for the first, over 25 µM for the second. The first is the more potent here.

`O=C(CSc1nc2ccccc2n1-c1ccccc1)N1CCN(c2ccccc2)CC1` [Compound 51, 2-(1-Phenyl-1H-benzoimidazol-2-ylsulfanyl)-1-(4-phenyl-piperazin-1-yl)-ethanone] and `O=C(CSc1nc2ccccc2s1)N1CCN(C(c2ccccc2)c2ccccc2)CC1` [Compound 72, 1-(4-Benzhydryl-piperazin-1-yl)-2-(benzothiazol-2-ylsulfanyl)-ethanone] cannot be ordered by EC50: over 25 µM for the first, over 25 µM for the second.

`O=C(CSc1nc2ccc([N+](=O)[O-])cc2s1)N1CCN(c2ccccc2)CC1` [Compound 52, 2-(6-Nitro-benzothiazol-2-ylsulfanyl)-1-(4-phenyl-piperazin-1-yl)-ethanone] and `O=C(CSc1nc2ccc([N+](=O)[O-])cc2s1)N1CCN(c2cccc(Cl)c2)CC1` [Compound 73, 1-[4-(3-Chloro-phenyl)-piperazin-1-yl]-2-(6-nitro-benzothiazol-2-ylsulfanyl)-ethanone] cannot be ordered by EC50: over 25 µM for the first, over 25 µM for the second.

`O=C(CSc1nc2ccc([N+](=O)[O-])cc2s1)N1CCCC1` [Compound 55, 2-(6-Nitro-benzothiazol-2-ylsulfanyl)-1-pyrrolidin-1-yl-ethanone] and `O=C(CSc1nc2ccccc2s1)N1CCCC1` [Compound 63, 2-(Benzothiazol-2-ylsulfanyl)-1-pyrrolidin-1-yl-ethanone] cannot be ordered by EC50: over 25 µM for the first, over 25 µM for the second.

`Cc1ccc(C(=O)Nc2ccc3nc(SCC(=O)N4CCCCC4)sc3c2)cc1` [Compound 56, 4-Methyl-N-[2-(2-oxo-2-piperidin-1-yl-ethylsulfanyl)-benzothiazol-6-yl]-benzamide] and `O=C(Nc1ccc2nc(SCC(=O)N3CCCC3)sc2c1)c1ccc(Cl)cc1` [Compound 58, 4-Chloro-N-[2-(2-oxo-2-pyrrolidin-1-yl-ethylsulfanyl)-benzothiazol-6-yl]-benzamide] cannot be ordered by EC50: over 25 µM for the first, over 25 µM for the second.

`CC(=O)Nc1ccc2nc(SCC(=O)N3CCN(c4ccccc4)CC3)sc2c1` [Compound 57, N-{2-[2-Oxo-2-(4-phenyl-piperazin-1-yl)-ethylsulfanyl]-benzothiazol-6-yl}-acetamide] and `O=C(CSc1nc2ccccc2s1)N1CCN(c2ccc(F)cc2)CC1` [Compound 71, 2-(Benzothiazol-2-ylsulfanyl)-1-[4-(4-fluoro-phenyl)-piperazin-1-yl]-ethanone] cannot be ordered by EC50: over 25 µM for the first, over 25 µM for the second.

`CCN(CC)C(=O)CSc1nc2cc(C)ccc2[nH]1` [Compound 62, N,N-Diethyl-2-(5-methyl-1H-benzoimidazol-2-ylsulfanyl)-acetamide] and `Cc1cccc(C)c1NC(=O)Cn1c(SCC(N)=O)nc2ccccc21` [Compound 79, 2-{1-[(2,6-Dimethyl-phenylcarbamoyl)-methyl]-1H-benzoimidazol-2-ylsulfanyl}-acetamide] cannot be ordered by EC50: over 25 µM for the first, over 25 µM for the second.

`COc1ccc(C(=O)Nc2ccc3nc(SCC(=O)N4CCOCC4)sc3c2)cc1OC` [Compound 64, 3,4-Dimethoxy-N-[2-(2-morpholin-4-yl-2-oxo-ethylsulfanyl)-benzothiazol-6-yl]-benzamide] and `O=C(Nc1ccc2nc(SCC(=O)N3CCCC3)sc2c1)c1ccccc1Br` [Compound 65, 2-Bromo-N-[2-(2-oxo-2-pyrrolidin-1-yl-ethylsulfanyl)-benzothiazol-6-yl]-benzamide] cannot be ordered by EC50: over 25 µM for the first, over 25 µM for the second.

`NC(=O)C1CCN(C(=O)CSc2nc3ccccc3o2)CC1` [Compound 67, 1-[2-(Benzooxazol-2-ylsulfanyl)-acetyl]-piperidine-4-carboxylic acid amide] and `Cc1ccc(-c2nnc(N3CCN(C(=O)CSc4nc5ccccc5o4)CC3)c3ccccc23)cc1` [Compound 78, 2-(Benzooxazol-2-ylsulfanyl)-1-[4-(4-p-tolyl-phthalazin-1-yl)-piperazin-1-yl]-ethanone] cannot be ordered by EC50: over 25 µM for the first, over 25 µM for the second.

`Nc1ccc2nc(SCC(=O)N3CCN(c4ccc(Cl)cc4)CC3)sc2c1` [Compound 77, 2-(6-Amino-benzothiazol-2-ylsulfanyl)-1-[4-(4-chloro-phenyl)-piperazin-1-yl]-ethanone] and `Cn1c(SCC(=O)N2CCc3ccccc3C2)nc2ccccc21` [Compound 81, 1-(3,4-Dihydro-1H-isoquinolin-2-yl)-2-(1-methyl-1H-benzoimidazol-2-ylsulfanyl)-ethanone] cannot be ordered by EC50: over 25 µM for the first, over 25 µM for the second.

Tested on: dengue
Assay: not given
Details: animal model not specified in the sentence (mouse or rhesus monkey); cited from earlier work

In the case of `NC(=O)c1ncn([C@@H]2O[C@H](CO)[C@@H](O)[C@H]2O)n1` [ribavirin], the adverse effects induced is given as “induced anemia and thrombocytosis”.

Same assay, conditions: rhesus monkey model; cited from earlier work

For `NC(=O)c1ncn([C@@H]2O[C@H](CO)[C@@H](O)[C@H]2O)n1` [ribavirin], the protection against dengue is listed as “did not show protection against dengue”.

Tested on: not listed separately
Assay: Cytotoxicity (cell proliferation assay, MTT or Alamar Blue)
Format: cell-based
Details: flag printed in the Activity column of Table 1
Protocol: Initially, the chemical structures of the hit compounds were examined for chemical tractability. […] Hits that passed this medicinal chemistry filter were evaluated for their potency. Compound potency was determined by evaluating inhibitory activity across a broad range of concentrations. Nonlinear regression was used to generate best-fit inhibition curves and to calculate the 50% effective concentration (EC50). The selectivity or specificity of a given compound is typically expressed as a ratio of its cytotoxicity to its biological effect. A cell proliferation assay is used to calculate a 50% cytotoxicity concentration (CC50); the ratio of this value to the EC50 is referred to as the therapeutic index (T.I.=CC50/EC50). Two types of assays have been used to determine cytotoxicity, both of which are standard methods for quantitating the reductase activity produced in metabolically active cells (30). One is a colorimetric method that measures the reduction of 3-(4,5-dimethylthiazol-2-yl)-2,5-diphenyl-tetrazolium bromide (MTT), and the other uses fluorimetry to measure the reduction of resazurin (Alamar Blue). […] Verification that these compounds act against each of the four serotypes of dengue was done with yield assays carried out at several drug concentrations, and the titer determined for each.

With `O=C1CC(Sc2nc3ccccc3s2)C(=O)N1Cc1ccccc1` (centres unmarked) [Compound 4, 3-(Benzothiazol-2-ylsulfanyl)-1-benzyl-pyrrolidine-2,5-dione] the “toxic (flag beside activity class)” value was “toxic”.
In the case of `COc1ccccc1C(=O)C1CCCN(C(=O)CSc2nc3cc(C)ccc3[nH]2)C1` (centres unmarked) [Compound 12, 1-[3-(2-Methoxy-benzoyl)-piperidin-1-yl]-2-(5-methyl-1H-benzoimidazol-2-ylsulfanyl)-ethanone], the “toxic (flag beside activity class)” value is reported as “toxic”.

Tested on: dengue
Assay: not given
Details: mouse model; cited from earlier work

For `NC(=O)c1ncn([C@@H]2O[C@H](CO)[C@@H](O)[C@H]2O)n1` [ribavirin], the protection against dengue is given as “did not show protection against dengue”.

— patent US9029376B2, “Small molecule inhibitors for the treatment or prevention of dengue virus infection” (Siga Technologies, Inc., priority 2008, dated 2015)
